# Data reported in US10065967B2, “Compounds that are ERK inhibitors” (Merck Sharp & Dohme Corp., priority 2013, dated 2018).
# Structures can show the parent of a compound that is named as a salt.
# Target: Active Human ERK2 (hERK2) (Homo sapiens (Human), UniProt P28482)
# Assay: Active Human ERK2 (hERK2) Activity Assay (IMAP-FP)
# Type: biochemical
# Conditions: phosphorylated active hERK2 0.5 nM, 30 μM ATP, 10 point titration, read-out: ERK 2 Human average IC50
# Experimental: Assays Active Human ERK2 (hERK2) Activity Assay:
# Activated ERK2 activity was determined in an IMAP-FP assay (Molecular Devices). Using this assay format, the potency (IC50) of each compound was determined from a 10 point (1:3 serial dilution, 3 μM starting compound concentration) titration curve using the following outlined procedure. […] Following a 15 minute compound & enzyme incubation, each reaction was initiated by the addition of 10 μL kinase buffer containing 2.45 μM ERK2 IMAP substrate peptides (2.25 μM-unlabeled peptide and 200 nM-labeled peptide, and 75 μM ATP. The final reaction in each well of 25 μL consists of 0.5 nM hERK2, 900 nM unlabeled peptide, 80 nM labeled-peptide, and 30 μM ATP. Phosphorylation reactions were allowed to proceed for 60 minutes and were immediately quenched by the addition of 60 μL IMAP detection beads (1:1000 dilutions) in IMAP binding buffer (Molecular Devices) with 24 mM NaCl. Plates were read on EnVision reader after 60 minutes binding equilibration using Fluorescence Polarization protocol (Perkin Elmer).
# Chain of Active Human ERK2 (hERK2) (P28482 whole entry): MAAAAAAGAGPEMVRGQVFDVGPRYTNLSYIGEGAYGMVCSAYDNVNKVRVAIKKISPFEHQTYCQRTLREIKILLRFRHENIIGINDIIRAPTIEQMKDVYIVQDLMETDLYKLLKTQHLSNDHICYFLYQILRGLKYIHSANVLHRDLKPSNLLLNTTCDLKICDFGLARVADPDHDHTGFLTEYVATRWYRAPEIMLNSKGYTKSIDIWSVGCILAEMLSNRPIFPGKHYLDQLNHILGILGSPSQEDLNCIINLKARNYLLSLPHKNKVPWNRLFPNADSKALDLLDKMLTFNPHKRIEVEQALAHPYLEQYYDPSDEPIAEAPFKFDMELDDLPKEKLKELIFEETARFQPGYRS
row,SMILES,IC50 [nM]
1,"Cn1cc(-c2n[nH]c3cc4[nH]c(=O)ccc4cc23)cn1 [Example 4, 3-(1-methyl-1H-pyrazol-4-yl)-1,8-dihydro-7H-pyrazolo[4,3-g]quinolin-7-one]",0.3
2,"O=c1ccc2cc3cn[nH]c3cc2[nH]1 [Example 5, 1,8-dihydro-7H-pyrazolo[4,3-g]quinolin-7-one]",228
3,"Cn1cc(-c2n[nH]c3cc4[nH]c(=O)c(Br)cc4cc23)cn1 [Example 6, 6-bromo-3-(1-methyl-1H-pyrazol-4-yl)-1,8-dihydro-7H-pyrazolo[4,3-g]quinolin-7-one trifluoroacetate]",0.3
4,"Cn1cc(-c2n[nH]c3cc4[nH]c(=O)c(Cc5ccccc5)cc4cc23)cn1 [Example 7, 6-benzyl-3-(1-methyl-1H-pyrazol-4-yl)-1,8-dihydro-7H-pyrazolo[4,3-g]quinolin-7-one]",0.3
5,"Cc1cc(-c2n[nH]c3cc4c(cc23)CCCC(=O)N4)ccn1 [Example 9, 3-(2-methylpyridin-4-yl)-5,6,7,9-tetrahydroazepino[3,2-f]indazol-8(1H)-one]",252
6,"Cc1cc(-c2n[nH]c3cc4c(cc23)CN([C@H](C)c2ccc(F)cc2)C(=O)N4)ccn1 [Example 10, (R)-6-(1-(4-fluorophenyl)ethyl)-3-(2-methylpyridin-4-yl)-5,6-dihydro-1H-pyrazolo[4,3-g]quinazolin-7(8H)-one]",0.3
7,"Cc1cc(-c2n[nH]c3cc4c(cc23)CCN(Cc2ccc(F)cc2)C(=O)N4O)ccn1 [Example 11, 7-(4-fluorobenzyl)-9-hydroxy-3-(2-methylpyridin-4-yl)-5,6,7,9-tetrahydro-[1,3]diazepino[5,4-f]indazol-8(1H)-one]",459
8,"Cc1cc(-c2n[nH]c3cc4c(cc23)CCN([C@H](C)c2ccc(F)cc2)C(=O)N4)ccn1 [Example 12, (R)-7-(1-(4-fluorophenyl)ethyl)-3-(2-methylpyridin-4-yl)-5,6,7,9-tetrahydro-[1,3]diazepino[5,4-f]indazol-8(1H)-one]",72
9,"Cc1cc(-c2n[nH]c3cc4c(cc23)CNC(=O)N4)ccn1 [Example 13, 3-(2-methylpyridin-4-yl)-5,6-dihydro-1H-pyrazolo[4,3-g]quinazolin-7(8H)-one]",0.6
10,"Cc1cc(-c2n[nH]c3cc4c(cc23)CN(Cc2ccccc2)C(=O)N4)ccn1 [Example 14, 6-benzyl-3-(2-methylpyridin-4-yl)-5,6-dihydro-1H-pyrazolo[4,3-g]quinazolin-7(8H)-one]",0.5
11,"C[C@H](c1ccccc1)n1c(=O)[nH]c2cc3[nH]nc(-c4ccc5nnn(C)c5c4)c3cc2c1=O [Example 15, (R)-3-(1-methyl-1H-benzo[d][1,2,3]triazol-6-yl)-6-(1-phenylethyl)-1H-pyrazolo[4,3-g]quinazoline-5,7(6H,8H)-dione]",1.7
12,"Cc1cc(-c2n[nH]c3cc4c(cc23)CN(C2CCCOc3ccccc32)C(=O)N4)ccn1 (stereo not shown) [Example 16, 3-(2-methylpyridin-4-yl)-6-(2,3,4,5-tetrahydrobenzo[b]oxepin-5-yl)-5,6-dihydro-1H-pyrazolo[4,3-g]quinazolin-7(8H)-one]",4.8
13,COC[C@H](c1ccc(F)cc1)N1Cc2cc3c(-c4ccnc(C)c4)n[nH]c3cc2NC1=O [Example 17],0.7
14,"COc1ccccc1CN1Cc2cc3c(-c4ccnc(C)c4)n[nH]c3cc2NC1=O [Example 18, 6-(2-methoxybenzyl)-3-(2-methylpyridin-4-yl)-5,6-dihydro-1H-pyrazolo[4,3-g]quinazolin-7(8H)-one]",0.8
15,"COc1ccccc1CCN1Cc2cc3c(-c4ccnc(C)c4)n[nH]c3cc2NC1=O [Example 19, 6-(2-methoxyphenethyl)-3-(2-methylpyridin-4-yl)-5,6-dihydro-1H-pyrazolo[4,3-g]quinazolin-7(8H)-one]",2.3
16,"Cc1cc(-c2n[nH]c3cc4c(cc23)CN([C@H](C)c2ccccc2)C(=O)N4)ccn1 [Example 20, (R)-3-(2-methylpyridin-4-yl)-6-(1-phenylethyl)-5,6-dihydro-1H-pyrazolo[4,3-g]quinazolin-7(8H)-one 2,2,2-trifluoroacetate]",0.3
17,"Cc1cc(-c2n[nH]c3cc4c(cc23)CN(Cc2cccc(C)n2)C(=O)N4)ccn1 [Example 21, 6-((6-methylpyridin-2-yl)methyl)-3-(2-methylpyridin-4-yl)-5,6-dihydro-1H-pyrazolo[4,3-g]quinazolin-7(8H)-one]",0.6
18,"Cc1cc(-c2n[nH]c3cc4c(cc23)CN([C@@H]2CCCCc3ccccc32)C(=O)N4)ccn1 [Example 22, (R)-3-(2-methylpyridin-4-yl)-6-(6,7,8,9-tetrahydro-5H-benzo[7]annulen-5-yl)-5,6-dihydro-1H-pyrazolo[4,3-g]quinazolin-7(8H)-one]",24
19,"Cc1cc(-c2n[nH]c3cc4[nH]c(=O)n([C@H](C)c5ccccc5)c(=O)c4cc23)ccn1 [Example 23, (R)-3-(2-methylpyridin-4-yl)-6-(1-phenylethyl)-1H-pyrazolo[4,3-g]quinazoline-5,7(6H,8H)-dione]",3.7
20,"O=c1ccc2cc3c(N4CCOCC4)n[nH]c3cc2[nH]1 [Example 24, 3-morpholino-1H-pyrazolo[4,3-g]quinolin-7(8H)-one]",12
21,"O=c1ccc2cc3c(N4CCCCC4)n[nH]c3cc2[nH]1 [Example 25, 3-(piperidin-1-yl)-1H-pyrazolo[4,3-g]quinolin-7(8H)-one]",42
22,"C[C@H](c1ccccc1)N1Cc2cc3c(-c4ccc(C#N)nc4)n[nH]c3cc2NC1=O [Example 27, (R)-5-(7-oxo-6-(1-phenylethyl)-5,6,7,8-tetrahydro-1H-pyrazolo[4,3-g]quinazolin-3-yl)picolinonitrile]",10
23,"COc1ncc(-c2n[nH]c3cc4c(cc23)CN([C@H](C)c2ccccc2)C(=O)N4)cn1 [Example 28, (R)-3-(2-methoxypyrimidin-5-yl)-6-(1-phenylethyl)-5,6-dihydro-1H-pyrazolo[4,3-g]quinazolin-7(8H)-one formate]",0.6
24,"CC(=O)Nc1n[nH]c2cc3c(cc12)CN([C@H](C)c1ccccc1)C(=O)N3 [Example 34, (R)-N-(7-oxo-6-(1-phenylethyl)-5,6,7,8-tetrahydro-1H-pyrazolo[4,3-g]quinazolin-3-yl)acetamide]",2.3
25,"COc1n[nH]c2cc3c(cc12)CN([C@H](C)c1ccccc1)C(=O)N3 [Example 35, (R)-3-methoxy-6-(1-phenylethyl)-5,6-dihydro-1H-pyrazolo[4,3-g]quinazolin-7(8H)-one]",114
26,"COCCOc1n[nH]c2cc3c(cc12)CN([C@H](C)c1ccccc1)C(=O)N3 [Example 36, (R)-3-(2-methoxyethoxy)-6-(1-phenylethyl)-5,6-dihydro-1H-pyrazolo[4,3-g]quinazolin-7(8H)-one]",6.4
27,"C[C@H](c1ccccc1)N1Cc2cc3c(OCCO)n[nH]c3cc2NC1=O [Example 37, (R)-3-(2-hydroxyethoxy)-6-(1-phenylethyl)-5,6-dihydro-1H-pyrazolo[4,3-g]quinazolin-7(8H)-one]",20
28,"C[C@H](c1ccccc1)N1Cc2cc3c(OC4CCOC4)n[nH]c3cc2NC1=O (stereo partly drawn) [Example 38, 6-((R)-1-phenylethyl)-3-((tetrahydrofuran-3-yl)oxy)-5,6-dihydro-1H-pyrazolo[4,3-g]quinazolin-7(8H)-one]",21
